Results published in PubChem BioAssay AID977619 (Broad Institute, 2014).
Several values for one entry are separate records, joined by “and”; a condition that tells them apart may be missing. Identical values can stand only once. Activity calls are given as the source filed them.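 The calls were made as follows: active = viability signal falls, with AC50 at or below a set limit tied to the top tested dose; inconclusive = flat curve with moderate signal loss, or poor fit; inactive = the rest, including rising signal.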

tested on: HepG2 viability, CellTiter-Glo ATP luminescence, 72 h; assay: viability loss in HepG2 hepatoma cells – cell-based, CellTiter-Glo luminescence, dry powder, set 13, cytotoxicity control, dose response (AID 977619); conditions: not given

Row | Structure (SMILES) | AC50
1 | Cc1csc(NC(=O)c2cc(S(=O)(=O)N(C)C)ccc2N2CCCC2)n1 | > 60 µM (inactive)
2 | Cc1cnc(NC(=O)c2cc(S(=O)(=O)N3CCCC3)ccc2N2CCCC2)s1 | > 60 µM (inactive)

tested on: not listed separately; assay: as above; conditions: HepG2 viability, CellTiter-Glo ATP luminescence, 72 h; at 30 µM (top of the series)

Row | Structure (SMILES) | activity change, negative = cytotoxicity
3 | Cc1cnc(NC(=O)c2cc(S(=O)(=O)N(C)C)ccc2N2CCC2)s1 | -16.2% (inactive)
4 | COc1ccc2nc(NC(=O)c3cc(S(=O)(=O)N(C)C)ccc3N3CCCC3)sc2c1 | -15% (inactive)
5 | COc1ccc2sc(NC(=O)c3cc(S(=O)(=O)N(C)C)ccc3N3CCCC3)nc2c1 | 12.7% (inactive)
6 | Cc1cnc(NC(=O)c2cc(S(=O)(=O)N(C)C)ccc2N(C)C)s1 | -8.52% (inactive)
7 | CN(C)S(=O)(=O)c1ccc(N2CCCC2)c(C(=O)Nc2ccccc2Cl)c1 | 0.028% (inactive)
8 | Cc1ccc(NC(=O)c2cc(S(=O)(=O)N(C)C)ccc2N2CCCC2)cc1 | -24% (inactive)
9 | CN(C)S(=O)(=O)c1ccc(N2CCCC2)c(C(=O)Nc2nc3ccccc3s2)c1 | -28% (inactive)
10 | CN(C)S(=O)(=O)c1ccc(N2CCCC2)c(C(=O)Nc2cccnc2)c1 | -8.96% (inactive)
11 | Cc1nc(NC(=O)c2cc(S(=O)(=O)N(C)C)ccc2N2CCCC2)n[nH]1 | 7.89% (inactive)
12 | CN(C)S(=O)(=O)c1ccc(N2CCCC2)c(C(=O)Nc2ccncc2)c1 | -16.4% (inactive)
13 | COc1ccc(NC(=O)c2cc(S(=O)(=O)N(C)C)ccc2N2CCCC2)cc1 | -5.62% (inactive)
14 | COc1ccccc1NC(=O)c1cc(S(=O)(=O)N(C)C)ccc1N1CCCC1 | -1.12% (inactive)
15 | CN(C)S(=O)(=O)c1ccc(N2CCCC2)c(C(=O)Nc2ccccc2F)c1 | 0.657% (inactive)
16 | CN(C)S(=O)(=O)c1ccc(N2CCCC2)c(C(=O)Nc2ccccc2)c1 | -16.8% (inactive)
17 | CCN(CC)S(=O)(=O)c1ccc(N2CCCC2)c(C(=O)Nc2ncc(C)s2)c1 | -6.49% (inactive)
18 | Cc1cnc(NC(=O)c2cc(S(=O)(=O)N(C)c3ccccc3)ccc2N2CCCC2)s1 | 2.13% (inactive)
19 | CCN(CC)c1ccc(S(=O)(=O)N(C)C)cc1C(=O)Nc1ncc(C)s1 | -14.5% (inactive)
20 | Cc1cnc(NC(=O)c2cc(S(=O)(=O)N(C)C)ccc2N2CCCC2)s1 | -11% (inactive) and -24.4% (inactive)
21 | COc1cccc2sc(NC(=O)c3cc(S(=O)(=O)N(C)C)ccc3N3CCCC3)nc12 | -0.843% (inactive)

Row | Structure (SMILES) | activity change, negative = cytotoxicity
22 | Cc1cnc(NC(=O)c2cc(S(=O)(=O)N(CC(C)C)CC(C)C)ccc2N2CCCC2)s1 | 2.42% (inactive)
23 | Cc1cnc(NC(=O)c2cc(S(=O)(=O)N3CCOCC3)ccc2N2CCCC2)s1 | -27.5% (inactive)
24 | Cc1cnc(NC(=O)c2cc(S(=O)(=O)N(C)C)ccc2N2CCNCC2)s1 | 2.09% (inactive)
25 | CN(C)CCCN(Cc1cc2ccccc2[nH]c1=O)C(=O)Nc1ccccc1 | -20.2% (inactive)
26 | CN(C)S(=O)(=O)c1ccc(N2CCCC2)c(C(=O)Nc2ccc(Br)cc2)c1 | 3.71% (inactive)
27 | Cc1nnc(NC(=O)c2cc(S(=O)(=O)N(C)C)ccc2N2CCCC2)s1 | -4.85% (inactive)
28 | Cc1cnc(NC(=O)c2cc(S(=O)(=O)N3CCNCC3)ccc2N2CCCC2)s1 | -16.2% (inactive)
29 | Cc1ccccc1NC(=O)c1cc(S(=O)(=O)N(C)C)ccc1N1CCCC1 | -8.5% (inactive)
30 | Cc1cnc(NC(=O)c2cc(S(=O)(=O)N(C)C)ccc2N2CCCCC2)s1 | -24.5% (inactive)
31 | Cc1cnc(NC(=O)c2cc(S(=O)(=O)NCc3ccccc3)ccc2N2CCCC2)s1 | -8.91% (inactive)
32 | Cc1cnc(NC(=O)c2cc(S(=O)(=O)N3CCCCC3)ccc2N2CCCC2)s1 | -1.49% (inactive)
33 | CN(C)C(=O)c1cc(S(=O)(=O)N(C)C)ccc1N1CCCC1 | -5.71% (inactive)
34 | CN(C)S(=O)(=O)c1ccc(N2CCCC2)c(C(=O)N2CCOCC2)c1 | -23.2% (inactive)
35 | CN(C)S(=O)(=O)c1ccc(N2CCCC2)c(C(=O)NC2CCCCC2)c1 | -17.5% (inactive)
36 | CN(C)S(=O)(=O)c1ccc(N2CCCC2)c(C(=O)Nc2nccs2)c1 | -14.2% (inactive)
37 | CN(C)CCCN(Cc1cc2ccccc2[nH]c1=O)C(=O)NCc1ccccc1 | -20.2% (inactive)
38 | CN(C)S(=O)(=O)c1ccc(N2CCCC2)c(C(=O)Nc2cccc(F)c2)c1 | -10% (inactive)
39 | Cc1cnc(NC(=O)c2cccc(S(=O)(=O)N(C)C)c2)s1 | 0.262% (inactive)
40 | Cc1cnc(NC(=O)c2cc(S(=O)(=O)N(C)C)ccc2C2CCCC2)s1 | 1.56% (inactive)
